We go through 3 molecules from patent US12448358B2, “Inhibitors of protein arginine deiminase 1 and methods of preparation and use thereof” (University of Massachusetts, priority 2019, dated 2025).

For one assay, the target named is T1, PAD4 (Homo sapiens, UniProt Q9UM07).
T1 construct: made in house
Put plainly: Inactivation kinetics of PAD4 (COLDER citrulline assay). The class given is biochemical. The conditions noted are these: for Fold PAD selectivity: bracketed value under kinact/KI; for kinact/KI: marks: * nonlinear fit of kobs versus [I], ‡ linear fit, † single kobs. As to the method:
(§1) Inactivation kinetics. […] After 15 min, reactions were quenched with liquid nitrogen and the production of citrulline was quantified using the COLDER assay. (Kearney, et al. Biochemistry 2005, 44, 10570-10582; Knipp, et al. Anal. Biochem. 2000, 286, 257-264.) The time-dependence of PAD inhibition was fit to the following equation 1, […] (1), using Grafit, version 5.0.11, where v is velocity, ν0 is initial velocity, k (or kobs is the pseudo-first-order rate constant of inactivation, and t is time. Upon reaching saturation, the concentration dependence of kobs was fit to equation 2, kobs=kinact[I]/(KI+[I]), (2), using Grafit, version 5.0.11, where kinact is the maximal rate of inactivation, KI is the concentration of inhibitor that affords half-maximal inactivation, and [I] is the concentration of inhibitor. When kobs with [I] varied linearly, kinact/KI was determined from the slope of the line. All the experiments were performed at least in duplicate.

The target of assay [1] is T2, PAD1 (Homo sapiens, UniProt Q9ULC6).
T2 construct: made in house
T2 sequence (Q9ULC6 1-663): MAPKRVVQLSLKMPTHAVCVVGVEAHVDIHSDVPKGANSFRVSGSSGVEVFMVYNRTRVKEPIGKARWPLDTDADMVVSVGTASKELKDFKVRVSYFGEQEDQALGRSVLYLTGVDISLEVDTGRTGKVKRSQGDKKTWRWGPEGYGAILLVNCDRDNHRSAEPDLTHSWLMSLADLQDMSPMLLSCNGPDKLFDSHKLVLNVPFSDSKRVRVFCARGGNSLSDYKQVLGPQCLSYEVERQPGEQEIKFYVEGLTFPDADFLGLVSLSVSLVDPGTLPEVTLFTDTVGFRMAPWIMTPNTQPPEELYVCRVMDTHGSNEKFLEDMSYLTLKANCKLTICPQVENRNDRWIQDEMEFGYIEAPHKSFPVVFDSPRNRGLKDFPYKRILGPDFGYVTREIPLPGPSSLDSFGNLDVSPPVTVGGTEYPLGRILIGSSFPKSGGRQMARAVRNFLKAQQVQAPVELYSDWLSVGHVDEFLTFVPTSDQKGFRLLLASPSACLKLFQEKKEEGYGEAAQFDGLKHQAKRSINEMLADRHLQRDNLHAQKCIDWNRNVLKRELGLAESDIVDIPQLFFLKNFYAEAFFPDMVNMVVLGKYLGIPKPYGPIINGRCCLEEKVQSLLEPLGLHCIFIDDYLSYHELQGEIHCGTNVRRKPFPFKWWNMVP
The assay can be described thus: Inactivation kinetics of PAD1 (COLDER citrulline assay). The class given is biochemical. The settings on record: for Ki / kinact/KI / kinact: PAD1; for Ki: concentration of inhibitor that affords half-maximal inactivation; for kinact/KI: marks: * nonlinear fit of kobs versus [I], ‡ linear fit, † single kobs; for Fold PAD selectivity: PAD1 over the other PADs, bracketed value under kinact/KI. As to the method:
as §1

The target of the next assay is T3, PAD2 (Homo sapiens, UniProt Q9Y2J8).
T3 construct: made in house
T3 sequence (Q9Y2J8 whole entry): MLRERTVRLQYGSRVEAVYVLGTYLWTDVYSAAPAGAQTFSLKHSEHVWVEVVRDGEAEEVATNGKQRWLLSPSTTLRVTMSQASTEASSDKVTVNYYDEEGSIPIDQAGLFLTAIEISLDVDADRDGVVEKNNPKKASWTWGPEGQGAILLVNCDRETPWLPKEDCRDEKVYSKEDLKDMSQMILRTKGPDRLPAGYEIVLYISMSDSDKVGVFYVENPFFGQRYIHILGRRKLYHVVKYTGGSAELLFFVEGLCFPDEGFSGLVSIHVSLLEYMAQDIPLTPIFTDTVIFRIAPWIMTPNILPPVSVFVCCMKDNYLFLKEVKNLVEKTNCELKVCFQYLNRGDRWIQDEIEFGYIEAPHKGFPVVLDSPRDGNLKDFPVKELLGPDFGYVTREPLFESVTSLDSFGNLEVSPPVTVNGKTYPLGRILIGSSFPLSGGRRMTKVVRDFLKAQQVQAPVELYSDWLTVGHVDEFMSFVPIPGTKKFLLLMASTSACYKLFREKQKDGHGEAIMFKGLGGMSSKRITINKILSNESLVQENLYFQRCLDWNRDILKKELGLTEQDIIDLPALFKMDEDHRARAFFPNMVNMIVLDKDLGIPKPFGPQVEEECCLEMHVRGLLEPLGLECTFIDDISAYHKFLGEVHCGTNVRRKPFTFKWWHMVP
Put plainly: Inactivation kinetics of PAD2 (COLDER citrulline assay). The class given is biochemical. The conditions noted are these: for Fold PAD selectivity: bracketed value under kinact/KI; for kinact/KI: marks: * nonlinear fit of kobs versus [I], ‡ linear fit, † single kobs. As to the method:
as §1

Assay [2] concerns the target T2, PAD1. Put plainly: Histone H3 citrullination in HEK293TPAD1 cells. The class given is cell-based. The settings on record: 1 mM CaCl2, 5 μM ionomycin, 3 h, read-out: EC50 of inhibition of histone H3 citrullination. On the procedure: The final concentration of DMSO in each well was 1%. […] All the experiments were performed at least in duplicate.
In the next assay the target is T4, PAD3 (Homo sapiens, UniProt Q9ULW8).
T4 construct: made in house
T4 sequence (Q9ULW8 1-664): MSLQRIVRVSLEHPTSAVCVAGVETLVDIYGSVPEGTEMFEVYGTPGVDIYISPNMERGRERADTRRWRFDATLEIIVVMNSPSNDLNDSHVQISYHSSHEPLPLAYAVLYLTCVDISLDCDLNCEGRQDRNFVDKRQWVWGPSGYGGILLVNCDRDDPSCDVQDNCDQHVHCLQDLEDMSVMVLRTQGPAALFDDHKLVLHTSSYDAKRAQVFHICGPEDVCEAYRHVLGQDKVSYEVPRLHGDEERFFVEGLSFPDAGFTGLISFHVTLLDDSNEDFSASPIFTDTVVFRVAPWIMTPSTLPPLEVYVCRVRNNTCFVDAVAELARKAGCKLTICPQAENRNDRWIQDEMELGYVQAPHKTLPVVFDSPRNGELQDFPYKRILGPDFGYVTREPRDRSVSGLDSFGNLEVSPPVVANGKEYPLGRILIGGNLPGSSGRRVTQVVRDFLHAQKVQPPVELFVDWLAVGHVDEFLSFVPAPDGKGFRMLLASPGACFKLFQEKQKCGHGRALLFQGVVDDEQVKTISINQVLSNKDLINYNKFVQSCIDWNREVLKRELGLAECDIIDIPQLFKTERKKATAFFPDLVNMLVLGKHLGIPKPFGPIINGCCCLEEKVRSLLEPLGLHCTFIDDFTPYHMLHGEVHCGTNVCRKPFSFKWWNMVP
Put plainly: Inactivation kinetics of PAD3 (COLDER citrulline assay). The class given is biochemical. The settings on record: for Fold PAD selectivity: bracketed value under kinact/KI; for kinact/KI: marks: * nonlinear fit of kobs versus [I], ‡ linear fit, † single kobs. On the procedure: as §1

[3] abbreviates: read-out: kinact/KI (converted).

Where two headings read alike, the source gives them in different places.

T1 sequence (Q9UM07 whole entry): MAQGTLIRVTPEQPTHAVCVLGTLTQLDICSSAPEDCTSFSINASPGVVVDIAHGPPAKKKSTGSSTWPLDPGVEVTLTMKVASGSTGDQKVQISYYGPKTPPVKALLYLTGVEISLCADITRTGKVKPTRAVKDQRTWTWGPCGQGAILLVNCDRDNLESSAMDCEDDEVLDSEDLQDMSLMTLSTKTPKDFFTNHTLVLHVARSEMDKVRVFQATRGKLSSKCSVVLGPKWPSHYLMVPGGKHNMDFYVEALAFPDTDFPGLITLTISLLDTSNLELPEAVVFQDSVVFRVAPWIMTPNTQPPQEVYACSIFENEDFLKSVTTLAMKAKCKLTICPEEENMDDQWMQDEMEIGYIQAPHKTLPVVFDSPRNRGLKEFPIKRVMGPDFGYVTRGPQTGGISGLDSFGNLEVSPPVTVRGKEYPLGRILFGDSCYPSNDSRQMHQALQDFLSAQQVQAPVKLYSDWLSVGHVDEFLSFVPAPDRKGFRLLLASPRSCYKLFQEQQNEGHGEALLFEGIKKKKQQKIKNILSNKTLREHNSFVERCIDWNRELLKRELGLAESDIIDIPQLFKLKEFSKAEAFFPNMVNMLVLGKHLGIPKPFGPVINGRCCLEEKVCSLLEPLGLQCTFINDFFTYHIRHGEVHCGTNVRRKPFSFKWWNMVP

What is called kinact is the maximal first-order rate at which the target is inactivated. The term EC50 denotes the concentration at which the effect is half-maximal. For the molecule `N=C(CF)NCCC[C@H](NC(=O)c1cc(I)cc(I)c1O)c1nc2ccccc2[nH]1` [Compound 1], the “Fold PAD selectivity” value at PAD4 was “[2] fold”; on PAD1 [1], 74 fold; on PAD2, “[1] fold”; on PAD3, “[1] fold”. For the same molecule, the kinact/KI on PAD4 (setting [3]) is 4.5 M⁻¹ s⁻¹; on PAD1 [1] (setting [3]), 173 M⁻¹ s⁻¹; on PAD2 (setting [3]), 2.33 M⁻¹ s⁻¹; at PAD3 (setting [3]), 3.33 M⁻¹ s⁻¹. This molecule showed a Ki on PAD1 [1] of 12.5 µM. In addition, the kinact at PAD1 [1] (read-out: kinact (converted)) is 0.00217 s⁻¹. Moreover, the EC50 at PAD1 [2] was determined as 14.5 µM.

Consider `N=C(CF)NCCC[C@H](NC(=O)c1cc(I)c(F)c(I)c1O)c1nc2ccccc2[nH]1` [Compound 19], for which the “Fold PAD selectivity” value is “[1] fold” at PAD4, 44 fold at PAD1 [1], “[1] fold” on PAD2 and “[2] fold” on PAD3. In addition, the kinact/KI on PAD4 (setting [3]) was 5 M⁻¹ s⁻¹; on PAD1 [1] (setting [3]), 221 M⁻¹ s⁻¹; at PAD2 (setting [3]), 5 M⁻¹ s⁻¹; at PAD3 (setting [3]), 11.7 M⁻¹ s⁻¹. The Ki on PAD1 [1] came to 30.2 µM. Further, on PAD1 [1] (read-out: kinact (converted)), the kinact was 0.00667 s⁻¹. Also, on PAD1 [2], the EC50 was found to be 31.8 µM.

For the molecule `C#Cc1c(I)cc(C(=O)N[C@@H](CCCNC(=N)CF)c2nc3ccccc3[nH]2)c(O)c1I` [Compound 21], on PAD4, the “Fold PAD selectivity” value is “[2] fold” and the kinact/KI is recorded as 220 ± 30^† M^−1min^−1. At PAD1 [1], the kinact is 0.00517 s⁻¹, the Ki turned out to be 69.2 µM and the kinact/KI is 4480 ± 200* M^−1min^−1. Further, on PAD2, the “Fold PAD selectivity” value is “[1] fold” and the kinact/KI was 130 ± 30^† M^−1min^−1. Besides, on PAD3, the “Fold PAD selectivity” value was “[2] fold” and the kinact/KI was 310 ± 80^† M^−1min^−1.
